Tests used:
[1] = target: T1, h-GABA-A α5β3γ2 (Homo sapiens, UniProt P18507+P31644); test: [3H]flumazenil competition binding assay, membranes of HEK293 cells expressing GABAA receptors; details: displacement of [3H]-Flumazenil 0.5 nM, HEK293 cells expressing human receptors, mean of two determinations; Table 1
In short: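 Membranes from HEK293 cells transiently expressing human α5β3γ2 GABAA receptors, in Krebs-tris buffer pH 7.5, competed against [3H]flumazenil for 1 hour at 4° C to equilibrium. Bound radioactivity collected on GF/C filters and counted by liquid scintillation; Ki values are means of two determinations.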

[2] = target: T1, h-GABA-A α5β3γ2; test: Two-electrode voltage clamp electrophysiology in Xenopus laevis oocytes expressing GABAA receptors, modulation of GABA EC20 current; type: cell-based; parameters: host or cells: Xenopus laevis oocytes micro-injected with RNA transcripts of the subunits; details: Table 1; for Efficacy (GABA) %: % modulation of GABA EC20 = 100*(Fold increase-1); for Fold increase h-GABA-A α5β3γ2 oocyte: test compound at approx. 30 fold its Ki, GABA at EC20
In short: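 Human α5β3γ2 GABAA receptors were expressed in Xenopus oocytes by RNA injection, with γ2 RNA 5–10-fold higher, and recorded 3–5 days later by two-electrode voltage clamp at −80 mV at room temperature. The test compound, at about 30× its Ki, was co-applied during a second GABA EC20 pulse. Efficacy is the extremum of the point-by-point ratio to the first response, expressed as 100*(Fold increase−1).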

SMILES	Ki [1] [nM]	Efficacy (GABA) % [2] [%]	Fold increase h-GABA-A α5β3γ2 oocyte [2]
CO[C@H]1CN(c2cnn(Cc3c(-c4ccc(C)nc4)noc3C)c(=O)c2)[C@H]1C [Example 197, 5-[(2S,3S)-3-methoxy-2-methyl-azetidin-1-yl]-2-[[5-methyl-3-(6-methyl-3-pyridyl)isoxazol-4-yl]methyl]pyridazin-3-one]	2	131	2.31
CO[C@H]1COC2(C1)CN(c1cnn(Cc3c(-c4ccc(C(F)(F)F)nc4)noc3C)c(=O)c1)C2 [Example 237, 5-[(7R)-7-methoxy-5-oxa-2-azaspiro[3.4]octan-2-yl]-2-[[5-methyl-3-[6-(trifluoromethyl)-3-pyridyl]isoxazol-4-yl]methyl]pyridazin-3-one]	5.8	147	2.47
COC1CN(c2cnn(Cc3c(-c4ccc(C)nn4)noc3C)c(=O)c2)C1 [Example 169, 5-(3-methoxyazetidin-1-yl)-2-[[5-methyl-3-(6-methylpyridazin-3-yl)isoxazol-4-yl]methyl]pyridazin-3-one]	2.4	97	1.97
Cc1ccc(-c2noc(C)c2Cn2ncc(N3CC4(CC(C)CO4)C3)cc2=O)nn1 (single isomer, unassigned) [Example 241, 2-[[5-methyl-3-(6-methylpyridazin-3-yl)isoxazol-4-yl]methyl]-5-[(7S)-7-methyl-5-oxa-2-azaspiro[3.4]octan-2-yl]pyridazin-3-one or enantiomer]	5.4	80	1.8
CCOc1ncc(-c2cnn(Cc3c(-c4ccc(C)nc4)noc3C)c(=O)c2)cc1C [Example 180, 5-(6-ethoxy-5-methylpyridin-3-yl)-2-((5-methyl-3-(6-methylpyridin-3-yl)isoxazol-4-yl)methyl)pyridazin-3(2H)-one]	39	196	2.96
Cc1ccc(-c2noc(C)c2Cn2ncc(N3CC4(CC(F)CCO4)C3)cc2=O)nn1 (single isomer, unassigned) [Example 287]	3.8	77	1.77
CCOC1CN(c2cnn(Cc3c(-c4ccc(Cl)nc4)noc3C)c(=O)c2Cl)C1 [Example 272, 4-chloro-2-((3-(6-chloropyridin-3-yl)-5-methylisoxazol-4-yl)methyl)-5-(3-ethoxyazetidin-1-yl)pyridazin-3(2H)-one]	26.4	135	2.35
Cc1onc(-c2ncc(Cl)cc2F)c1Cn1ncc(N2C[C@@H](C)O[C@@H](C)C2)cc1=O [Example 52, 2-[[3-(5-chloro-3-fluoro-2-pyridyl)-5-methyl-isoxazol-4-yl]methyl]-5-(cis-2,6-dimethylmorpholin-4-yl)pyridazin-3-one]	0.7	135	2.35
COC1CN(c2cnn(Cc3c(-c4cc(C)on4)noc3C)c(=O)c2)C1 [Example 140, 5-(3-methoxyazetidin-1-yl)-2-[[5-methyl-3-(5-methylisoxazol-3-yl)isoxazol-4-yl]methyl]pyridazin-3-one]	8.5	62	1.62
CCn1cc(-c2cnn(Cc3c(-c4ccc(Cl)nc4)noc3C)c(=O)c2)cn1 [Example 221, 2-((3-(6-chloropyridin-3-yl)-5-methylisoxazol-4-yl)methyl)-5-(1-ethyl-1H-pyrazol-4-yl)pyridazin-3(2H)-one]	31.2	99	1.99
Cc1ccc(-c2noc(C)c2Cn2ncc(N3CC(OCC(F)F)C3)cc2=O)nn1 [Example 306, 5-(3-(2,2-difluoroethoxy)azetidin-1-yl)-2-((5-methyl-3-(6-methylpyridazin-3-yl)isoxazol-4-yl)methyl)pyridazin-3(2H)-one]	1.2	101	2.01
Cc1ccc(-c2noc(C)c2Cn2ncc(NCC3CCOCC3)cc2=O)cn1 [Example 88, 2-((5-methyl-3-(6-methylpyridin-3-yl)isoxazol-4-yl)methyl)-5-(((tetrahydro-2H-pyran-4-yl)methyl)amino)pyridazin-3(2H)-one]	33.4	103	2.03

The next lines start with the values.

Ki [1] [nM]	Efficacy (GABA) % [2] [%]	Fold increase h-GABA-A α5β3γ2 oocyte [2]	SMILES
10.2	63	1.63	CC(=O)N(C)[C@H]1CCN(c2cnn(Cc3c(-c4ccc(C)nc4)noc3C)c(=O)c2)C1 [Example 1, N-methyl-N-[(3S)-1-[1-[[5-methyl-3-(6-methyl-3-pyridyl)isoxazol-4-yl]methyl]-6-oxo-pyridazin-4-yl]pyrrolidin-3-yl]acetamide]
4.2	80	1.8	Cc1ccc(-c2noc(C)c2Cn2ncc(N3CC4(CCCO4)C3)cc2=O)nn1 [Example 171, 2-[[5-methyl-3-(6-methylpyridazin-3-yl)isoxazol-4-yl]methyl]-5-(5-oxa-2-azaspiro[3.4]octan-2-yl)pyridazin-3-one]
19.4	117	2.17	Cc1ccc(-c2noc(C)c2Cn2ncc(N3CC4(CCOCC4)C3)cc2=O)cn1 [Example 199, 2-((5-methyl-3-(6-methylpyridin-3-yl)isoxazol-4-yl)methyl)-5-(7-oxa-2-azaspiro[3.5]nonan-2-yl)pyridazin-3(2H)-one]
2.6	139	2.39	Cc1onc(-c2ccc(Cl)cn2)c1Cn1ncc(N2CCN(C(=O)C3(C)CC3)CC2)cc1=O [Example 16, 2-((3-(5-Chloropyridin-2-yl)-5-methylisoxazol-4-yl)methyl)-5-(4-(1-methylcyclopropanecarbonyl)piperazin-1-yl)pyridazin-3(2H)-one]
32.8	245	3.45	Cc1ccc(-c2noc(C)c2Cn2ncc(N3CC4(CN(C)C4)C3)cc2=O)cn1 [Example 82, 5-(6-methyl-2,6-diazaspiro[3.3]heptan-2-yl)-2-[[5-methyl-3-(6-methyl-3-pyridyl)isoxazol-4-yl]methyl]pyridazin-3-one]
11.9	87	1.87	Cc1onc(-c2ccc(Cl)cn2)c1Cn1ncc(N2CC3(C2)CN(C2CC2)C3)cc1=O [Example 86, 2-[[3-(5-chloro-2-pyridyl)-5-methyl-isoxazol-4-yl]methyl]-5-(2-cyclopropyl-2,6-diazaspiro[3.3]heptan-6-yl)pyridazin-3-one]
12.5	266	3.66	O=C(C1CC1)N1CCN(c2cnn(Cc3c(-c4ccc(Cl)cn4)noc3C3CC3)c(=O)c2)CC1 [Example 25, 2-((3-(5-Chloropyridin-2-yl)-5-cyclopropylisoxazol-4-yl)methyl)-5-(4-(cyclopropanecarbonyl)piperazin-1-yl)pyridazin-3(2H)-one]

Source: patent US11840528B2 (Hoffmann-La Roche Inc., priority 2018, dated 2023)
